One assay has as its target T1, Aurora1 (Aurora-B) (Homo sapiens, UniProt Q96GD4).
T1 construct: Aurora-B: the full length protein (His tagged in N-terminal) has been co expressed in SF9 cells; poly-histidine (N); made in house; host or cells: SF9 cells
Description: Aurora 1 (Aurora B) kinase radioactivity scintillation assay using nickel chelate Flash plates. The format is biochemical. The following applies: 10 nM Aurora-B (co expressed with C3 fragment of INCEP), 500 nM NuMA substrate, 1 μM ATP with [33P] ATP, 5 mM MgCl2, 30 minutes, 37° C. In short, it runs like this: (§1)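 10 nM Aurora-B or Aurora-A with 500 nM NuMA-His substrate, 1 μM ATP plus [³³P]ATP, in 50 mM NaCl, 1 mM DTT and 5 mM (B) or 10 mM (A) MgCl2, 30 min at 37° C on nickel-chelate plates. Incorporated ³³P counted after washing, background-subtracted; IC50 fitted from % inhibition versus concentration.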

Another assay deals with T2, Aurora2 (Aurora-A) (Homo sapiens, UniProt O14965).
T2 construct: Aurora-A: the full length recombinant protein including an N-terminal poly-histidine tail has been expressed in E. coli; poly-histidine (N); made in house; host or cells: E. coli
T2 sequence (O14965 1-403): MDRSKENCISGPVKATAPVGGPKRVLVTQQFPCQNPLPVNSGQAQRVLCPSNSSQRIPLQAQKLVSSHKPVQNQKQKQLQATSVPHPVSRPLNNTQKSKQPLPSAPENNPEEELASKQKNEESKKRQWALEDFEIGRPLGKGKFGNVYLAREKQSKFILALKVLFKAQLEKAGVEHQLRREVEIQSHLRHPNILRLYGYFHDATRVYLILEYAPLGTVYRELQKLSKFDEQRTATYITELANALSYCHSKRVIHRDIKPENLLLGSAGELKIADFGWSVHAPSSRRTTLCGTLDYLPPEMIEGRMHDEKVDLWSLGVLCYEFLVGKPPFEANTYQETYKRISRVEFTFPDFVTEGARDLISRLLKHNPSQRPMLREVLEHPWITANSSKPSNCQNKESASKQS
Description: Aurora 2 (Aurora A) kinase radioactivity scintillation assay using nickel chelate Flash plates. It is filed as biochemical. To be noted: 10 nM Aurora-A, 500 nM NuMA substrate, 1 μM ATP with [33P] ATP, 10 mM MgCl2, 30 minutes, 37° C. The method in brief:
as §1

Structures can show the parent of a compound that is named as a salt.

T1 sequence (Q96GD4 whole entry, species assumed): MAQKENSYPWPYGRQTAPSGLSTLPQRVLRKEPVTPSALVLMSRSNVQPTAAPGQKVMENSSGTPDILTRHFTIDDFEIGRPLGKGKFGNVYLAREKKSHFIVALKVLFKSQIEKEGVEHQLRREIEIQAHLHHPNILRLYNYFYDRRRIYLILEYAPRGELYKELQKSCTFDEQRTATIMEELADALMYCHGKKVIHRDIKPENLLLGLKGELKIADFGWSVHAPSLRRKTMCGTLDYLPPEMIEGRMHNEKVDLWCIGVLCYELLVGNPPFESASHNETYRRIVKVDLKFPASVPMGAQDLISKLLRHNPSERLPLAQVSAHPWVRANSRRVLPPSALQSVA
T1 sequence (Q9NQS7 821-918 partner limits assumed, species assumed): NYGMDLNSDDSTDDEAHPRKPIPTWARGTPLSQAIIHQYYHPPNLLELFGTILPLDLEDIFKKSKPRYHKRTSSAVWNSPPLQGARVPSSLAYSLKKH

By IC50 is commonly meant the concentration needed to halve the response being measured. In the case of `CCOC(=O)c1[nH]cc2c1NC1=C(C(=O)CNC1)C2c1ccc(Sc2nc3cc(O)ccc3[nH]2)o1` (centres unmarked) [Example 123, 9-[5-(5-Hydroxy-1H-benzimidazol-2-ylsulfanyl)-furan-2-yl]-8-oxo-4,5,6,7,8,9-hexahydro-2H-pyrrolo[3,4-b]-1,7-naphthyridine-3-carboxylic acid ethyl ester hydrochloride], the values for the IC50 on Aurora1 (Aurora-B) and at Aurora2 (Aurora-A) were 72 nM and 813 nM, respectively.

As to `CC1(C)CC(=O)C2=C(C1)Nc1c(c[nH]c1C(=O)O)C2c1ccc(Sc2nc3ccccc3[nH]2)o1` (centres unmarked) [Example 124, 9-[5-(1H-Benzimidazol-2-ylsulfanyl)-furan-2-yl]-6,6-dimethyl-8-oxo-4,5,6,7,8,9-hexahydro-2H-pyrrolo[3,4-b]quinoline-3-carboxylic acid], the IC50 at Aurora1 (Aurora-B) amounted to 15 nM; on Aurora2 (Aurora-A) it was 20 nM.

For the compound `CC1(C)CC(=O)C2=C(C1)Nc1c(c[nH]c1C(N)=O)C2c1ccc(Sc2nc3ccccc3[nH]2)o1` (centres unmarked) [Example 125, 9-[5-(1H-Benzimidazol-2-ylsulfanyl)-furan-2-yl]-6,6-dimethyl-8-oxo-4,5,6,7,8,9-hexahydro-2H-pyrrolo[3,4-b]quinoline-3-carboxamide], the IC50 stood at 11 nM at Aurora1 (Aurora-B) and 23 nM on Aurora2 (Aurora-A).

Turning to `CCOC(=O)c1[nH]cc2c1NC1=C(C(=O)CCC1)C2c1ccc(Sc2nc3cc(OC(F)F)ccc3[nH]2)o1` (centres unmarked) [Example 126, 9-[5-(5-Difluoromethoxy-1H-benzimidazol-2-ylsulfanyl)-furan-2-yl]-8-oxo-4,5,6,7,8,9-hexahydro-2H-pyrrolo[3,4-b]quinoline-3-carboxylic acid ethyl ester], the IC50 turned out to be 13 nM on Aurora1 (Aurora-B) and 41 nM at Aurora2 (Aurora-A).

Regarding `CCOC(=O)c1[nH]cc2c1NC1=C(C(=O)CN(C(=O)OC(C)(C)C)C1)C2c1ccc(Sc2nc3cc(OC(F)F)ccc3[nH]2)o1` (centres unmarked) [Example 127], the IC50 is 93 nM at Aurora1 (Aurora-B) and 566 nM at Aurora2 (Aurora-A).

In the case of `CCOC(=O)c1[nH]cc2c1NC1=C(C(=O)CNC1)C2c1ccc(Sc2nc3cc(OC(F)F)ccc3[nH]2)o1` (centres unmarked) [Example 128, 9-[5-(5-Difluoromethoxy-1H-benzimidazol-2-ylsulfanyl)-furan-2-yl]-8-oxo-4,5,6,7,8,9-hexahydro-2H-pyrrolo[3,4-b]-1,7-naphthyridine-3-carboxylic acid ethyl ester hydrochloride], the IC50 was determined as 17 nM at Aurora1 (Aurora-B) and 114 nM on Aurora2 (Aurora-A).

For `CCOC(=O)c1[nH]cc2c1NC1=C(C(=O)CN(C(=O)OC(C)(C)C)C1)C2c1ccc(Sc2nc3cc(Cl)ccc3[nH]2)o1` (centres unmarked) [Example 130], the IC50 on Aurora1 (Aurora-B) turned out to be 37 nM; on Aurora2 (Aurora-A), 434 nM.

Regarding `CCOC(=O)c1[nH]cc2c1NC1=C(C(=O)CNC1)C2c1ccc(Sc2nc3cc(Cl)ccc3[nH]2)o1` (centres unmarked) [Example 131, 9-[5-(5-Chloro-1H-benzimidazol-2-ylsulfanyl)-furan-2-yl]-8-oxo-4,5,6,7,8,9-hexahydro-2H-pyrrolo[3,4-b]-1,7-naphthyridine-3-carboxylic acid ethyl ester hydrochloride], the values for the IC50 on Aurora1 (Aurora-B) and on Aurora2 (Aurora-A) were 10 nM and 82 nM, respectively.

For the compound `CCOC(=O)c1[nH]cc2c1NC1=C(C(=O)CCC1)C2c1ccc(Sc2nc3cc(C(F)(F)F)ccc3[nH]2)o1` (centres unmarked) [Example 132, 8-Oxo-9-[5-(5-trifluoromethyl-1H-benzimidazol-2-ylsulfanyl)-furan-2-yl]-4,5,6,7,8,9-hexahydro-2H-pyrrolo[3,4-b]quinoline-3-carboxylic acid ethyl ester], the IC50 was found to be 14 nM on Aurora1 (Aurora-B) and 114 nM on Aurora2 (Aurora-A).

`CCOC(=O)c1[nH]cc2c1NC1=C(C(=O)CCC1)C2c1ccc(Sc2nc3cc(Cl)c(C)cc3[nH]2)o1` (centres unmarked) [Example 133, 9-[5-(5-Chloro-6-methyl-1H-benzimidazol-2-ylsulfanyl)-furan-2-yl]-8-oxo-4,5,6,7,8,9-hexahydro-2H-pyrrolo[3,4-b]quinoline-3-carboxylic acid ethyl ester]: the IC50 is 5 nM on Aurora1 (Aurora-B) and 31 nM at Aurora2 (Aurora-A).

For `CCOC(=O)c1[nH]cc2c1NC1=C(C(=O)CN(C(=O)OC(C)(C)C)C1)C2c1ccc(Sc2nc3cc(Cl)c(C)cc3[nH]2)o1` (centres unmarked) [Example 134], the IC50 at Aurora1 (Aurora-B) worked out at 47 nM; on Aurora2 (Aurora-A), 525 nM.

For the compound `CCOC(=O)c1[nH]cc2c1NC1=C(C(=O)CNC1)C2c1ccc(Sc2nc3cc(Cl)c(C)cc3[nH]2)o1` (centres unmarked) [Example 135, 9-[5-(5-Chloro-6-methyl-1H-benzimidazol-2-ylsulfanyl)-furan-2-yl]-8-oxo-4,5,6,7,8,9-hexahydro-2H-pyrrolo[3,4-b]-1,7-naphthyridine-3-carboxylic acid ethyl ester hydrochloride], the IC50 at Aurora1 (Aurora-B) stood at 22 nM; at Aurora2 (Aurora-A) it was 120 nM.

For `CCOC(=O)c1[nH]cc2c1NC1=C(C(=O)CCC1)C2c1ccc(Sc2nc3cc(Cl)cc(C)c3[nH]2)o1` (centres unmarked) [Example 136, 9-[5-(5-Chloro-7-methyl-1H-benzimidazol-2-ylsulfanyl)-furan-2-yl]-8-oxo-4,5,6,7,8,9-hexahydro-2H-pyrrolo[3,4-b]quinoline-3-carboxylic acid ethyl ester], the IC50 was 12 nM on Aurora1 (Aurora-B) and 18 nM at Aurora2 (Aurora-A).

Turning to `CCOC(=O)c1[nH]cc2c1NC1=C(C(=O)CN(C(=O)OC(C)(C)C)C1)C2c1ccc(Sc2nc3cc(Cl)cc(C)c3[nH]2)o1` (centres unmarked) [Example 137, 6-tert-Butyloxy-9-[5-(5-chloro-7-methyl-1H-benzimidazol-2-ylsulfanyl)-furan-2-yl]-8-oxo-2,4,5,7,8,9-hexahydro-pyrrolo[3,4-b]-1,7-naphthyridine-3-carboxylic acid ethyl ester], the 50% inhibitory concentration (IC50) on Aurora1 (Aurora-B) worked out at 93 nM; on Aurora2 (Aurora-A), 205 nM.

Consider `CCOC(=O)c1[nH]cc2c1NC1=C(C(=O)CNC1)C2c1ccc(Sc2nc3cc(Cl)cc(C)c3[nH]2)o1` (centres unmarked) [Example 138, 9-[5-(5-Chloro-7-methyl-1H-benzimidazol-2-ylsulfanyl)-furan-2-yl]-8-oxo-4,5,6,7,8,9-hexahydro-2H-pyrrolo[3,4-b]-1,7-naphthyridine-3-carboxylic acid ethyl ester hydrochloride], for which the figures for the IC50 at Aurora1 (Aurora-B) and at Aurora2 (Aurora-A) were 6 nM and 8 nM, respectively.

As for `CCOC(=O)c1[nH]cc2c1NC1=C(C(=O)CCC1)C2c1ccc(Sc2nc3cc4c(cc3[nH]2)OC(F)(F)O4)o1` (centres unmarked) [Example 139, 9-[5-(2,2-Difluoro-5H-[1,3]dioxolo[4′,5′:4,5]benzo[1,2-d]imidazol-6-ylsulfanyl)-furan-2-yl]-8-oxo-4,5,6,7,8,9-hexahydro-2H-pyrrolo[3,4-b]quinoline-3-carboxylic acid ethyl ester], the IC50 was determined as 19 nM on Aurora1 (Aurora-B) and 124 nM on Aurora2 (Aurora-A).

As to `CCOC(=O)c1[nH]cc2c1NC1=C(C(=O)CN(C(=O)OC(C)(C)C)C1)C2c1ccc(Sc2nc3cc4c(cc3[nH]2)OC(F)(F)O4)o1` (centres unmarked) [Example 140], the IC50 on Aurora1 (Aurora-B) is 1660 nM; on Aurora2 (Aurora-A), 3900 nM.

In the case of `CCOC(=O)c1[nH]cc2c1NC1=C(C(=O)CNC1)C2c1ccc(Sc2nc3cc4c(cc3[nH]2)OC(F)(F)O4)o1` (centres unmarked) [Example 141, 9-[5-(2,2-Difluoro-5H-[1,3]dioxolo[4′,5′:4,5]benzo[1,2-d]imidazol-6-ylsulfanyl)-furan-2-yl]-8-oxo-4,5,6,7,8,9-hexahydro-2H-pyrrolo[3,4-b]-1,7-naphthyridine-3-carboxylic acid ethyl ester hydrochloride], the IC50 worked out at 20 nM on Aurora1 (Aurora-B) and 87 nM at Aurora2 (Aurora-A).

Turning to `CCOC(=O)c1[nH]cc2c1NC1=C(C(=O)CNC1)C2c1ccc(Sc2nc3cc(F)cc(F)c3[nH]2)o1` (centres unmarked) [Example 143, 9-[5-(5,7-Difluoro-1H-benzimidazol-2-ylsulfanyl)-furan-2-yl]-8-oxo-4,5,6,7,8,9-hexahydro-2H-pyrrolo[3,4-b]-1,7-naphthyridine-3-carboxylic acid ethyl ester hydrochloride], the IC50 came to 7 nM on Aurora1 (Aurora-B) and 26 nM on Aurora2 (Aurora-A).

As for `O=C1CCCC2=C1C(c1ccc(Sc3nc4cc(F)cc(F)c4[nH]3)o1)c1c[nH]nc1N2` (centres unmarked) [Example 144, 4-[5-(5,7-Difluoro-1H-benzimidazol-2-ylsulfanyl)-furan-2-yl]-2,4,6,7,8,9-hexahydro-pyrazolo[3,4-b]quinolin-5-one], the IC50 on Aurora1 (Aurora-B) came out at 6 nM; at Aurora2 (Aurora-A) it was 28 nM.

For `O=C1CNCC2=C1C(c1ccc(Sc3nc4cc(F)cc(F)c4[nH]3)o1)c1c[nH]nc1N2` (centres unmarked) [Example 145, 4-[5-(5,7-Difluoro-1H-benzimidazol-2-ylsulfanyl)-furan-2-yl]-2,4,6,7,8,9-hexahydro-pyrazolo[3,4b]-1,7-naphthyridin-5-one hydrochloride], the values for the IC50 on Aurora1 (Aurora-B) and at Aurora2 (Aurora-A) were 16 nM and 131 nM, respectively.

For `CCOC(=O)c1[nH]cc2c1NC1=C(C(=O)CCC1)C2c1ccc(Sc2nc3cc(F)c(Cl)cc3[nH]2)o1` (centres unmarked) [Example 146, 9-[5-(6-Chloro-5-fluoro-1H-benzimidazol-2-ylsulfanyl)-furan-2-yl]-8-oxo-4,5,6,7,8,9-hexahydro-2H-pyrrolo[3,4-b]quinoline-3-carboxylic acid ethyl ester], the IC50 at Aurora1 (Aurora-B) came to 6 nM; at Aurora2 (Aurora-A) it was 41 nM.

(Values after patent US8163768B2, “1,4-dihydropyridine-fused heterocycles, process for preparing the same, use and compositions containing them” (Aventis Pharma S.A.., priority 2005, dated 2012).)
